Measurements taken from patent publication US8673313B2, “Cell penetrating peptides and its use fused to biomolecules with therapeutic action” (priority 2007, dated 2014).
Ends that are not written are not given here.

Tests used:
[1] = tested on: J774 cells; assay: Western blot: internalization of the cargo protein E7 to the cell; type: cell-based; conditions: 25 μM protein, J774, 4 hours at 37° C., FIG. 5
Method: The cells J774 grown overnight at 37° C. and 5% of CO2 with RPMI 1640, 10% inactivated calf fetal serum and 2 mM de glutamine. After that, the cell were aliquoted in tubes with 5×10^6 cells each and incubated with 25 μM of fusion protein LALF-E7, 25 μM of protein E7 and PBS during 4 hours at 37° C. The sedimentation of the cells was made by a centrifugation to 1000 rpm by 10 minutes. Wash pellet in three changes of PBS. Cells were ruptured in 100 μL of RIPA buffer (Promega) mixed in vortex per 10 second and 2 min in ice. The sedimentation of the broken cells was made by a centrifugation to 12000 rpm by 15 minutes. Protein concentration was determined to the cell extract and rum 10 μg of total protein in 15% polyacrilamide gel. Subsequently the gel was transferred to a nitrocellulose membrane. The membrane was incubated for 2 hours at room temperature with an IgG goat polyclonal antibody anti-E7 HPV 16 (Santa Cruz) diluted in PBS (1:100). Wash in three changes of PBS. Subsequently, the membrane was incubated for 45 minutes at room temperature and in a dark room with an anti-goat IgG peroxidase conjugate (Sigma) diluted in PBS (1:5000). Wash in three changes of PBS. Finally the ECL system from Amersham Pharmacia Biotech was used.

[2] = tested on: J774 cells; assay: Fluorescence microscopy: internalization of the cargo protein E7 to the cell; type: cell-based; conditions: 1.66 μM protein, J774, 37° C., 30 min, 1 hour and 2 hours, FIG. 4
Method: Cells J774 grown on sterile glass cover slips of 22 mm overnight at 37° C. and 5% of CO2 with RPMI 1640, 10% inactivated calf fetal serum and 2 mM de glutamine. Then, different glass cover slips incubated with 1.66 μM fusion protein LALF-E7, 1.66 μM of protein E7 and PBS (as negative control) a 37° C. per 30 min, 1 hour and 2 hours. CasKi cells (human cells expressing HPV 16) grown as positive control in the same experimental conditions.
After incubation the cells were washed briefly with PBS and fix cells by 4% paraformaldehide per 20 min at room temperature. Wash in three changes of PBS. The permeabilization of the cells was with 0.5% Tritón X-100 for 15 min a room temperature. Wash in three changes of PBS. Then, the cells were incubating for 1 hour in 1% blocking SFB in PBS at room temperature. Wash in three changes of PBS. Cells were incubated with goat IgG anti E7/HPV 16 polyclonal antibody (Santa Cruz) diluted in PBS 1:50. Wash extensively with PBS. Incubate with anti-goat-fluorescein IgG polyclonal antibody (Santa Cruz) diluted in PBS 1:50 for 45 minutes in a dark chamber. Wash extensively with PBS. Mount cover slip with aqueous mounting medium. Examine using a fluorescence microscope with appropriate filters.

[3] = tested on: cells with different histological origins (J774, CasKi, HeLa, TC-1, Hep2); assay: Internalization of CPP LALF or their analogues to cells with different histological origins (fluorescence microscopy); type: cell-based; conditions: 25 or 50 μM biotinylated peptide, 37° C., streptavidin-fluorescein, FIG. 1
Method: (§1) Different cellular lines were used in this realization (Table 1). Cells grown on sterile glass cover slips of 22 mm overnight at 37° C. and 5% of CO2 with RPMI 1640, 10% inactivated calf fetal serum and 2 mM de glutamine. Then, 25 or 50 μM de CPP LALF or their biotinylated analogues L-2 y L-20 added and incubated at 37° C. and 4° C. in different times (10 min, 20 min, 30 min, 1 h y 2 h). Wash briefly with PBS and fix cells by 4% paraformaldehide per 20 min at room temperature. Wash in three changes of PBS. The permeabilization of the cells was with 0.5% Tritón X-100 for 15 min a room temperature. Wash in three changes of PBS. The cells were incubating for 1 hour in 1% blocking SFB in PBS at room temperature. Wash in three changes of PBS. Incubate with 1:50000 in PBS streptavidin-fluorescein for 45 minutes in a dark chamber. Wash extensively with PBS. Mount cover slip with aqueous mounting medium. Examine using a fluorescence microscope with appropriate filters.
(§2) As a negative control were used not related biotinylated and cells without peptide.

[4] = tested on: murine splenocytes; assay: Internalization of the analogues L-2 and L-20 to murine splenocytes (confocal microscopy); type: cell-based, mice C57BL/6; conditions: 0.8 mg biotinylated peptide (278-280 μM), 37° C., 10 min to 18 h, FIG. 2
Method: For the splenocytes isolation, the mice C57BL/6 were sacrificed by break-up of the cervical and the splenocytes were removed aseptically. The cellular suspensions of the animals by each group met in pool and they were homogenized smoothly. The splenocytes were washed and the erythrocytes were lysed with a solution of NH4C10.83%. After washing, the splenocytes are divided en different tubes with 20×10^6 of cells in 10 mL of fresh medium RPMI 1640 supplemented with 7% de fetal bovine serum. Each preparation was incubated with 0.8 mg of the biotinylated peptides L-2 (278 μM) y L-20 (280 μM) in different times: 10 min, 30 min, 1 h and 18 h. The incubations were at 37° C. and 5% de CO2. The cells on sterile glass cover slips were fixed, permeabilized and treated with propidium Iodide for to stain the nucleus and with streptavidine-fluorescein for detection of peptides inside the cells.

[5] = tested on: J774 cells; assay: Fluorescence microscopy: internalization of the cargo protein GFP to the cell; type: cell-based; conditions: FIG. 6
Text: The protein produced in E. coli from the recombinant fusion LALF-GFP (GFP-English, green fluorescence protein) was used to verify that the CPP LALF or its analogues could internalize the cargo protein. The GFP (GenBank Accession #U55762) was obtained using the polymerase chain reaction from plasmid pEGFP-N1 of Clontech using oligonucleotides with SEQ ID N0. 11 and 12. Both oligonucleotides have restricted sites used for cloning (HindIII-sense and BamHI-antisense).
For the construction of recombinant fragment, synthetic LALF and GFP gene obtained by PCR were inserted with the T4 ligase in the vector pM238, similar as in the example III. The recombinant clone is identified with the SEQ ID N0. 13 and 14.
With the recombinant and purified LALF-GFP protein was performed an similar experiment to the example V, but in this case the cells J774 incubated with LALF-GFP, LALF biotinilade, GFP and PBS.

[6] = tested on: J774 cells; assay: Internalization of CPP LALF in J774 cells at 4° C. (fluorescence microscopy); type: cell-based; conditions: J774, 4° C., 10 min incubation, FIG. 1
Method: as §1, §2

In the case of “E7: recombinant protein E7 of HPV 16, unfused comparator [reference compound]”, the “detection of protein in cell extract by anti-E7 antibody (Western blot)” value [1] is reported as “not detected any recognition” and the “internalization of E7 (fluorescent cells, anti-E7 antibody)” value [2] is reported as “Negative results”.

With “L-12: analogous peptide of LALF 32-51 with alanine substitution in the position 12 (SEQ ID N0. 4) (HYRIKPTFRRLAWKYKGKFW; Artificial Sequence Description Analogue L-12)” the internalization into cells [3] was “similar” and the internalization into splenocytes [4] was “similar”.

With “L-20: analogous peptide of LALF 32-51 with alanine substitution in the position 20 (SEQ ID N0. 5) (HYRIKPTFRRLKWKYKGKFA; Artificial Sequence Description Analogue L-20)” the internalization into splenocytes [4] was “internalized in a short times of incubation (30 min)”.

“LALF-biotinilado: biotinylated CPP LALF peptide used as comparator in the GFP experiment (HYRIKPTFRRLKWKYKGKFW; also: biotinylated, site not given here; UniProt P07086 32-51, looked up, fragment)” was tested, and the “internalization of GFP (fluorescent cells)” value [5] was “fluorescent cells”.

In the case of “LALF: peptide corresponding to the region 32-51 of LALF protein (SEQ ID N0. 1) (HYRIKPTFRRLKWKYKGKFW; Artificial Sequence Description Synthetic Gen CPP LALF)”, the internalization into cells [3] is reported as “internalized in different cell types and short incubation times (30 min)”, the internalization into splenocytes [4] is reported as “similar” and the internalization into cells [6] is reported as “internalized in the cells J774 with only 10 min of the incubation at 4 °C”.
